Reference: paper PMC7497253, “Structure‐Based Macrocyclization of Substrate Analogue NS2B‐NS3 Protease Inhibitors of Zika, West Nile and Dengue viruses” (Chemmedchem, 2020)
Like-named read-outs stand apart in the source and are kept apart here. Starred links: 1 amine or outer side, 2 acyl side, 3 side chain; linkers in the order of their positions; H or OH if unused. Positions of bridges follow the written chain, without caps; N, C: chain ends. Non-standard residues stand in square brackets, D forms with d. Residues, ends and D or L forms follow the SMILES beside them. dεLys(Nα-amidino) = N=C(N)N[C@H](CCCCN[*:1])C(=O)[*:2]; NHCH2(1,3-C6H4)CH2CO = O=C(Cc1cccc(CN[*:1])c1)[*:2]; βAla = NCCC(=O)O

What was measured:
Type in all cases: biochemical
[1] = molecular target: T1, bZiPro (unlinked binary Zika virus NS2B-NS3 protease) (Zika virus, UniProt A0A024B7W1); assay: Enzyme kinetics with bZiPro, fluorogenic substrate Phac-Leu-Lys-Lys-Arg-AMC
T1 construct: The viral protease consists of the N‐terminal third of the nonstructural protein NS3; the NS2B construct ends at Glu96; His6 (cleaved yes); made in house
Experimental: (§1) Enzyme kinetics. Measurements with bZiPro15 and the covalent WNV NS2B‐NS3 construct^10 were performed at room temperature in black 96 well plates using a Fluoroskan Ascent® plate reader (Thermo Fisher Scientific, Vantaa, Finland) with λ ex at 355 nm and λ em at 460 nm. Each well contained 125 μL inhibitor dissolved in buffer (for bZiPro: 20 mM Tris×HCl pH 8.5, 2 mM DTT, 10 w/v glycerol and 0.01 w/v Triton X‐100;18 for WNV protease: 100 mM Tris×HCl pH 8.5, containing 32 w/v glycerol and 0.01 w/v Triton X‐10012) and 50 μL substrate Phac‐Leu‐Lys‐Lys‐Arg‐AMC12 (40 μM for bZiPro (10 μM in assay, K M=1.4 μM) and 400 μM for the WNV protease (100 μM in assay, K M=53 μM)). The measurements were started by addition of 25 μL enzyme solution (16 nM for bZiPro (2.0 nM in assay), and 64 nM for the WNV protease (8.0 nM in assay)). Data points were collected each 15 s over a period of 10 min using eight different inhibitor concentrations. […] The K i values and their standard deviation were obtained from at least three independent measurements.(1) vi=Vmax×[S]/KM1+[I]/Ki+[S]
The constants K M and V max were obtained from independent measurements with six different substrate concentrations in absence of inhibitor. For inhibitor 10 with bZiPro, additional measurements at three substrate concentrations (10, 5, and 2.5 μM in assay) were performed to obtain the Dixon plot shown in Figure 4.

[2] = molecular target: T2, WNV NS2B-NS3 protease (WNV-Pro) (West Nile virus, UniProt P06935); assay: Enzyme kinetics with the covalent WNV NS2B-NS3 construct, substrate Phac-Leu-Lys-Lys-Arg-AMC
T2 construct: NS3 has to form a complex with its cofactor NS2B to achieve proteolytic activity; The viral protease consists of the N‐terminal third of the nonstructural protein NS3
Experimental: as §1

[3] = molecular target: T3, bD4Pro (unlinked binary dengue-4 virus NS2B-NS3 protease) (Dengue virus type 4, UniProt Q2YHF2); assay: Enzyme kinetics with bD4Pro, substrate Benzoyl-Nle-Lys-Arg-Arg-AMC
T3 construct: The viral protease consists of the N‐terminal third of the nonstructural protein NS3; NS3 has to form a complex with its cofactor NS2B to achieve proteolytic activity; His6 (cleaved yes); made in house
T3 sequence (Q2YHF2 1475-1652 limits assumed): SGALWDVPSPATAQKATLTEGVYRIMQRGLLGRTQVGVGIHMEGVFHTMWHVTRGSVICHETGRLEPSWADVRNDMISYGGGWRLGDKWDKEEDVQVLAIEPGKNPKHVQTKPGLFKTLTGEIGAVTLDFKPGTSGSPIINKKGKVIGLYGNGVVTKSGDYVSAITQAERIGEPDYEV
T3 sequence (Q2YHF2 1397-1436 limits assumed): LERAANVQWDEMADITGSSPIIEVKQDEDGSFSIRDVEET
Experimental: Measurements with the dengue 4 virus protease construct (bD4Pro; expressed and purified by a similar methodology as described for bZiPro15 with slight modification of using Tobacco Etch Virus (TEV) protease instead of thrombin for His6‐tag cleavage) were performed in a Cytation 3 Mulitmode plate reader with λ ex at 380 nm and λ em at 460 nm. Assays were carried out as triplicate at 37 °C. Before measurement, the protease (final assay concentration 3 nM) was preincubated with varying concentrations of inhibitors in assay buffer (20 mM Tris pH 8.5, 10 % glycerol, 0.01 % Triton X‐100) for 1 h at room temperature in Corning black clear bottom 96‐well plates. The reaction was started by addition of the substrate Benzoyl‐Nle‐Lys‐Arg‐Arg‐AMC (final assay concentration 50 μM, K M=48.4 μM). Fluorescent readings were recorded at 1‐minute intervals over 10 minutes. The steady‐state rates v i in presence of inhibitor were calculated from the slopes of the progress curves using Graph Pad Prism. The v i values were fitted to Equation (2) as function of the inhibitor concentration [I] providing the IC50 values, where v 0 is the rate in absence of inhibitor and s a slope factor. The obtained IC50 values were finally converted into K i values by the Cheng‐Prusoff Equation (2).(2) vi=v0/1+I/IC50^s (3) Ki=IC50/1+S/KM

[4] = K i against bZiPro / ZIKV protease, value given in running text
[5] = K i bZiPro, mean±SD of at least three independent measurements, substrate 10 μM in assay, room temperature, pH 8.5
[6] = mean±SD of at least three independent measurements, substrate 100 μM in assay, room temperature, pH 8.5, read-out: K i WNV-Pro
[7] = mean±SD of at least three independent measurements, substrate 10 μM in assay, room temperature, pH 8.5, read-out: K i bZiPro
[8] = mean±SD of at least three independent measurements, 37 °C, IC50 converted into K i by Cheng-Prusoff, read-out: K i bD4Pro

T1 sequence (A0A024B7W1 1503-1680 limits assumed): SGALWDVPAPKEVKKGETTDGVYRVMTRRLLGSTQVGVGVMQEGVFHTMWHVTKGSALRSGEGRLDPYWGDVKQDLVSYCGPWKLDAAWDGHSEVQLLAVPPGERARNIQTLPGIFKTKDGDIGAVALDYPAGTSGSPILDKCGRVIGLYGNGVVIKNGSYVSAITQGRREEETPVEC
T1 sequence (A0A024B7W1 1425-1464 limits assumed): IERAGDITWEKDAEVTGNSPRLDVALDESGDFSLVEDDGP
T2 sequence (P06935 1424-1463): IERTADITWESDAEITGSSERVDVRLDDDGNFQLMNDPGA
T2 sequence (P06935 1502-1679): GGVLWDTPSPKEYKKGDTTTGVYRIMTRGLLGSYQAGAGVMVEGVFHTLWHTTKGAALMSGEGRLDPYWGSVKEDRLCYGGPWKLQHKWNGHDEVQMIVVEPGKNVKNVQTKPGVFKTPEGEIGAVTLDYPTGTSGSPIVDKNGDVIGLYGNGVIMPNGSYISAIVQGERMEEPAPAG

Compound | Ki [1, 4] [nM] | Ki [2] [nM] | Ki [1, 5] [nM] | Ki [3] [nM] | Ki [2, 6] [nM] | Ki [1, 7] [nM] | Ki [3, 8] [nM]
N=C(N)N[C@H]1CC[C@H](CNC(=O)[C@H](CCCCN)NC(=O)[C@H](CCCCN)NC(=O)Cc2ccc(Cl)c(Cl)c2)CC1 [Inhibitor 1, 3,4‐dichloro‐Phac‐Lys‐Lys‐GCMA, reference compound] | 14 | – | – | – | – | – | –
N=C(N)N[C@H]1CCCCNC(=O)[C@H](CCCCN)NC(=O)[C@H](CCCCN)NC(=O)Cc2ccc(cc2)CNC(=O)CCCNC1=O [Inhibitor 2] | – | 6300 ± 490 | 91.8 ± 6 | 11000 ± 1000 | – | – | –
N=C(N)N[C@H]1CCCNC(=O)[C@H](CCCCN)NC(=O)[C@H](CCCCN)NC(=O)Cc2ccc(cc2)CNC(=O)CCCNC1=O [Inhibitor 3] | – | 27800 ± 4400 | 846 ± 111 | 117000 ± 5000 | – | – | –
N=C(N)N[C@@H]1CCCCNC(=O)[C@H](CCCCN)NC(=O)[C@H](CCCCN)NC(=O)Cc2ccc(cc2)CNC(=O)CCCNC1=O [Inhibitor 4] | – | 4970 ± 500 | 70.1 ± 9.2 | 4730 ± 500 | – | – | –
N=C(N)N[C@@H]1CCCNC(=O)[C@H](CCCCN)NC(=O)[C@H](CCCCN)NC(=O)Cc2ccc(cc2)CNC(=O)CCCNC1=O [Inhibitor 5] | – | 22000 ± 4000 | 3610 ± 1330 | 60500 ± 5700 | – | – | –
NCCCC[C@@H]1NC(=O)Cc2ccc(cc2)CNC(=O)CCCNC(=O)[C@H](N)CCCCNC(=O)[C@H](CCCCN)NC1=O [Inhibitor 6] | – | – | – | – | 68100 ± 5000 | 24700 ± 7200 | 94500 ± 11600
NCCCC[C@@H]1NC(=O)Cc2ccc(cc2)CNC(=O)CCCNC(=O)[C@H](N)CCCNC(=O)[C@H](CCCCN)NC1=O [Inhibitor 7] | – | – | – | – | 31700 ± 3600 | 13200 ± 1700 | 30600 ± 3900
N=C(N)N[C@@H]1CCCCNC(=O)[C@H](CCCCN)NC(=O)[C@H](CCCCN)NC(=O)Cc2cccc(c2)CNC(=O)CCCNC1=O [Inhibitor 8] | – | 702 ± 83 | 4.33 ± 0.35 | 286 ± 9 | – | – | –
N=C(N)N[C@@H]1CCCCNC(=O)[C@H](CCCCN)NC(=O)[C@H](CCCCN)NC(=O)Cc2cccc(c2)CNC(=O)CCNC1=O [Inhibitor 9] | – | 374 ± 44 | 3.88 ± 0.81 | 182 ± 5 | – | – | –
N=C(N)N[C@@H]1CCCCNC(=O)[C@H](CCCCN)NC(=O)[C@H](CCCCN)NC(=O)Cc2cccc(c2)CNC1=O [Inhibitor 12] | – | 15300 ± 800 | 37.3 ± 4.7 | 1280 ± 50 | – | – | –
N=C(N)N[C@@H]1CCCCNC(=O)[C@H](CCCCN)NC(=O)[C@H](CCCCN)NC(=O)Cc2cccc(c2)NC(=O)CCNC1=O [Inhibitor 13] | 80 | 4280 ± 310 | 80.2 ± 9.7 | 7960 ± 550 | – | – | –
N=C(N)N[C@@H]1CCCCNC(=O)[C@H](CCCCN)NC(=O)[C@H](CCCCN)NC(=O)Cc2cccc(c2)NC(=O)CCCNC1=O [Inhibitor 14] | – | 16500 ± 4600 | 106 ± 29 | 5800 ± 360 | – | – | –
C[C@@H]1NC(=O)[C@H](NC(=N)N)CCCCNC(=O)[C@H](CCCCN)NC(=O)[C@H](CCCCN)NC(=O)Cc2cccc(c2)CNC1=O [Inhibitor 15] | – | 1390 ± 320 | 18.2 ± 5.1 | 3600 ± 380 | – | – | –
C[C@H]1NC(=O)[C@H](NC(=N)N)CCCCNC(=O)[C@H](CCCCN)NC(=O)[C@H](CCCCN)NC(=O)Cc2cccc(c2)CNC1=O [Inhibitor 16] | – | 237 ± 21 | 3.52 ± 1.09 | 125 ± 4 | – | – | –
CC(C)[C@@H]1NC(=O)[C@H](NC(=N)N)CCCCNC(=O)[C@H](CCCCN)NC(=O)[C@H](CCCCN)NC(=O)Cc2cccc(c2)CNC1=O [Inhibitor 17] | – | 6710 ± 320 | 42.8 ± 2.2 | 2810 ± 180 | – | – | –
CC(C)[C@H]1NC(=O)[C@H](NC(=N)N)CCCCNC(=O)[C@H](CCCCN)NC(=O)[C@H](CCCCN)NC(=O)Cc2cccc(c2)CNC1=O [Inhibitor 18] | – | 439 ± 28 | 7.74 ± 0.66 | 486 ± 27 | – | – | –
N=C(N)N[C@@H]1CCCCNC(=O)[C@H](CCCCN)NC(=O)[C@H](CCCCN)NC(=O)Cc2cccc(c2)CNC(=O)[C@H]2CCCN2C1=O [Inhibitor 19] | – | 850 ± 68 | 17.7 ± 0.5 | 4080 ± 260 | – | – | –
NCCCC[C@@H]1NC(=O)Cc2cccc(c2)CNC(=O)CNC(=O)[C@H](N)CCCCNC(=O)[C@H](CCCCN)NC1=O [Inhibitor 20] (H-[dK]G[NHCH2(1,3-C6H4)CH2CO]KK; lactam 1-C) | – | 99000 | 23000 | 282000 | – | – | –
NCCCC[C@@H]1NC(=O)Cc2cccc(c2)CNC(=O)CNC(=O)[C@H](NC(N)=O)CCCCNC(=O)[C@H](CCCCN)NC1=O [Inhibitor 21] | – | 68000 | 12000 | 135000 | – | – | –
N=C(N)N[C@@H]1CCCCNC(=O)[C@H](CCCCN)NC(=O)[C@H](CCCCN)NC(=O)CCCNC(=O)CNC1=O [Inhibitor 22] | – | 6700 ± 520 | 124 ± 8 | 6090 ± 470 | – | – | –
N=C(N)N[C@@H]1CCCCNC(=O)[C@H](CCCCN)NC(=O)[C@H](CCCCN)NC(=O)CCCCNC(=O)CNC1=O [Inhibitor 23] | – | 1220 ± 20 | 16.7 ± 3.4 | 1120 ± 50 | – | – | –
N=C(N)N[C@@H]1CCCCNC(=O)[C@H](CCCCN)NC(=O)[C@H](CCCCN)NC(=O)CCCCCNC(=O)CNC1=O [Inhibitor 24] | – | 973 ± 173 | 15.4 ± 2.6 | 1990 ± 90 | – | – | –
N=C(N)N[C@@H]1CCCCNC(=O)[C@H](CCCCN)NC(=O)[C@H](CCCCN)NC(=O)CNC(=O)CNC(=O)CNC1=O [Inhibitor 25] (cyclo(GGGKK[dεLys(Nα-amidino)])) | – | 129 ± 7 | 3.74 ± 0.2 | 378 ± 27 | – | – | –
N=C(N)N[C@@H]1CCCCNC(=O)[C@H](CCCCN)NC(=O)[C@H](CCCCN)NC(=O)CCNC(=O)CNC(=O)CNC1=O [Inhibitor 26] (cyclo(GG[βAla]KK[dεLys(Nα-amidino)])) | – | – | – | – | 68.6 ± 13.1 | 1.72 ± 0.03 | 160 ± 5
N=C(N)N[C@@H]1CCCCNC(=O)[C@H](CCCCN)NC(=O)[C@H](CCCCN)NC(=O)CNC(=O)CCNC(=O)CNC1=O [Inhibitor 27] (cyclo(G[βAla]GKK[dεLys(Nα-amidino)])) | – | – | – | – | 468 ± 3 | 7.35 ± 0.39 | 815 ± 79
